Results reported in PMC8309073, “Collagenase and Tyrosinase Inhibitory Effect of Isolated Constituents from the Moss Polytrichum formosum” (Plants, 2021).

Key:
[1] = target: collagenase; assay: FALGPA hydrolysis assay; also retained in Target Binding ultrafiltration UHPLC-MS (RA […]); assay type: biochemical, Hathewaya histolytica
[2] = target: T1, mushroom tyrosinase (Agaricus bisporus, UniProt C7FF04); assay: spectrophotometric L-tyrosine to dopachrome assay, […] nm; also retained in Target Binding (RA […], reference); assay type: biochemical
T1 construct: gene PPO3; T3824-250KU, Sigma-Aldrich
T1 sequence (C7FF04 2-392): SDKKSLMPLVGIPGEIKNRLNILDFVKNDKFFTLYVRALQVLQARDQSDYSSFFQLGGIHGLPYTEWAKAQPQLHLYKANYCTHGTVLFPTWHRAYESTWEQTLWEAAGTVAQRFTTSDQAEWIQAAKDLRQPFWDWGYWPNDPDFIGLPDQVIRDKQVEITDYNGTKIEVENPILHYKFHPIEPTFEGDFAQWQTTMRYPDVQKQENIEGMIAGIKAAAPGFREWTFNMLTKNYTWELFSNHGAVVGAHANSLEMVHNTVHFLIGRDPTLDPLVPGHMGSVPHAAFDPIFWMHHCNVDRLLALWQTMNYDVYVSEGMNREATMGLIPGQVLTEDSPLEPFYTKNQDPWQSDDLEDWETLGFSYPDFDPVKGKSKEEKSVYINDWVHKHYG

[3] = target: collagenase; assay: FALGPA hydrolysis assay (compound purity […]); also retained in Target Binding ultrafiltration UHPLC-MS (RA […]); assay type: biochemical, Hathewaya histolytica

SMILES | IC50 [1] | inhibition at 200 µM [2] | IC50 [3]
O=C1C[C@@H]2c3ccccc3O[C@H]3c4cc(O)ccc4-c4c(O)cc(O)c1c4[C@H]23 [compound 1, ohioensin A] | 72 µM | 30% | –
O=C1C[C@@H]2c3ccccc3O[C@H]3c4ccc(O)c(O)c4-c4c(O)cc(O)c1c4[C@H]23 [compound 2, nor-ohioensin D] | – | – | 167 µM
